Source: US20090022684A1, “Methods for hematopoietic stimulation” (priority 2006, published 2009)
Positions of bridges follow the written chain, without caps; N, C: chain ends. Residues, ends and D or L forms follow the SMILES beside them.

Experiments:
[1] = system: healthy older volunteers; assay: Phase I clinical trial: changes in blood cell populations from baseline to Day 7; format: in vivo, human; conditions: for effect on white blood cell population, especially neutrophil population: healthy adults, compared to placebo
Description: A Phase I, single-center, randomized double blind, placebo-controlled, multiple-escalating-dose study in healthy older volunteers was carried out for the peptide [Leu^27]cyclo(Glu^22-Lys^2 1)-hPTH-(1-31)-NH2 (SEQ ID NO: 4). Subjects were healthy males and females (non-reproductive potential), aged 40 to 65 years. […] Subcutaneous injections of placebo or the peptide with a dosage of 10 μg, 20 μg, 40 μg, 60 μg, or 80 μg was administered daily for 7 days. For each dosage level, 2 subjects (I male and I female) received placebo and 6 subjects (3 males and 3 females) received the peptide daily.
The number of white blood cells and the number neutrophils in a subject treated with the peptide increase as the dosage increases until it reaches the maximum at the dosage level of 60 μg. Increase in the number of white blood cells in subject treated with 60 μg of [Leu^27]cyclo(Glu^22-Lys^26)-hPTH-(1-31)-NH2 at Day 7 from the baseline level was about 8 times of that in subjects treated with placebo.

[2] = system: male mice of the C57BL/6 strain; assay: In vivo mouse study: white blood cell, neutrophil and lymphocyte populations after 14 days of subcutaneous dosing; conditions: for increase in neutrophil population compared to mice in the control group / increase in the white blood cell population compared to mice in the control group: Day 14, vs control group without any treatment; for Lymphocytes / Neutrophils / White Blood Cells: Day 14 blood, s.c. over 14 days, peptide 80 μg/kg once daily, G-CSF 10 μg/kg once daily, EPO 600 IU/kg Days 1, 4, 7, 10, 14, group mean
Text: In vivo Test System. Mouse was selected as the in vivo test system. Sufficient male mice of the C57BL/6 strain was obtained. The animals was obtained as weanlings of about 24-27 days of age on arrival. At randomization, their body weights were within ±20% of the overall mean for each sex. The health care and welfare of the mice were maintained in accordance with the requirement of the Animals (Scientific Procedures) Act 1986 UK. All animals were given clinical inspection for ill health on arrival. They were acclimatized for about three weeks and a veterinary inspection was performed before the start of dosing to ensure their suitability for study. The mice were assigned to treatment groups during the acclimatization period using a total randomization procedure. Group mean body weights were calculated and inspected to ensure there were no unacceptable difference between groups.
Preparation of Administered Formulation of [Leu^27]cyclo(Glu^22-Lys^26)-hPTH-(1-31)-NH2. The bulk freeze-dried peptide [Leu^27]cyclo(Glu^22-Lys^26)-hPTH-(1-31)-NH2 (SEQ ID NO: 4) was dissolved in 0.01 M acetic acid. The concentration of peptide in the solution was 1 μg/μL. The solution was re-aliquotted into dosing vials and kept frozen at approximately −70° C. The vials were then freeze-dried at the temperature lower than −20° C. and stored frozen until required. The freeze-dried aliquots for injection was reconstituted daily. The peptide was dissolved in an appropriate volume of purified water to an approximate concentration of 2-3 mg/mL. The phosphate-buffered saline (pH=7.4) was added to give the final required concentration and the pH value of the final solution is approximately 7.2. The capped vials were mixed thoroughly to ensure peptide was fully dissolved prior to use. Aseptic techniques and glass vials were used throughout dose preparation.
Preparation of Administered Formulation of G-CSF. G-CSF was provided at a concentration of 300 μg/mL in sorbito, sodium acetate and polysorbate 80 in water for injection. The stock solution was diluted accordingly with water for injection to provide the correct dosing concentration.
Preparation of Administered Formulation of EPO. EPO was provided at a concentration of 40,000 IU/mL in polysorbate 80, sodium chloride, sodium dihydrogen phosphate dihydrate, disodium phosphate dihydrate, glycine and water for injection. The stock solution was diluted accordingly with phosphate buffered solution to provide the correct dosing concentration.
In vivo Mouse Study. The peptide [Leu^27]cyclo(Glu^22-Lys^26)-hPTH-(1-31 )-NH2 (SEQ ID NO: 4), G-CSF or EPO were administered subcutaneously over 14 days. The mice were dosed as follows:
The peptide [Leu^27]cyclo(Glu^22-Lys^2 1)-hPTH-(1-3 I)-NH2 was administered to all mice in Groups 2, 3, 4 and 5 once daily for fourteen days at a dose level of 80 μg/kg.
Mice in Group 3, 4 and 5 also received EPO and/or G-CSF. EPO was administered on Days 1, 4, 7, 10 and 14 at a dose of 600 IU/kg. G-CSF was administered once daily for fourteen days at a dose level of 10 μg/kg.
Mice in 6, 7, 8 received EPO and/or G-CSF. EPO was administered on Days 1, 4, 7, 10 and 14 at a dose level of 600 IU/kg. G-CSF was administered once daily for fourteen days at a dose level of 10 μg/kg.
On Day 14, blood samples (0.5 mL EDTA nominal, 0.6 mL lithium heparin nominal) were withdrawn from all mice and were collected into lithium heparin tubes. The tubes were centrifuged and the plasma were separated and analyzed.

Question: What does the source list for `CC[C@H](C)[C@H](NC(=O)[C@H](CCC(=O)O)NC(=O)[C@H](CO)NC(=O)[C@@H](NC(=O)[C@@H](N)CO)C(C)C)C(=O)N[C@@H](CCC(N)=O)C(=O)N[C@@H](CC(C)C)C(=O)N[C@@H](CCSC)C(=O)N[C@@H](Cc1c[nH]cn1)C(=O)N[C@@H](CC(N)=O)C(=O)N[C@@H](CC(C)C)C(=O)NCC(=O)N[C@@H](CCCCN)C(=O)N[C@@H](Cc1c[nH]cn1)C(=O)N[C@@H](CC(C)C)C(=O)N[C@@H](CC(N)=O)C(=O)N[C@@H](CO)C(=O)N[C@@H](CCSC)C(=O)N[C@@H](CCC(=O)O)C(=O)N[C@@H](CCCNC(=N)N)C(=O)N[C@H](C(=O)N[C@H]1CCC(=O)NCCCC[C@@H](C(=O)N[C@@H](CC(C)C)C(=O)N[C@@H](CC(C)C)C(=O)N[C@@H](CCC(N)=O)C(=O)N[C@@H](CC(=O)O)C(=O)N[C@H](C(N)=O)C(C)C)NC(=O)[C@H](CCCNC(=N)N)NC(=O)[C@H](CC(C)C)NC(=O)[C@H](Cc2c[nH]c3ccccc23)NC1=O)C(C)C` [[Leu^27]cyclo(Glu^22-Lys^26)-hPTH-(1-31)-NH2] (H-SVSEIQLMHNLGKHLNSMERVEWLRKLLQDV-NH2; lactam 22-26; N-terminus assumed)?
Answer: Neutrophil, change in mean from baseline to Day 7 ([1]; 10 μg s.c. daily for 7 days): 1.22 x e^9/L; Platelet, change in mean from baseline to Day 7 ([1]; 10 μg s.c. daily for 7 days): 19.80 x e^9/L; Relative Neutrophil Count, change in mean from baseline to Day 7 ([1]; 10 μg s.c. daily for 7 days): 4%; White Blood Cells, change in mean from baseline to Day 7 ([1]; 10 μg s.c. daily for 7 days): 1.50 x e^9/L; Neutrophil, change in mean from baseline to Day 7 ([1]; 20 μg s.c. daily for 7 days): 1.22 x e^9/L; Platelet, change in mean from baseline to Day 7 ([1]; 20 μg s.c. daily for 7 days): 16.83 x e^9/L; Relative Neutrophil Count, change in mean from baseline to Day 7 ([1]; 20 μg s.c. daily for 7 days): 3%; White Blood Cells, change in mean from baseline to Day 7 ([1]; 20 μg s.c. daily for 7 days): 1.75 x e^9/L; Neutrophil, change in mean from baseline to Day 7 ([1]; 40 μg s.c. daily for 7 days): 2.88 x e^9/L; Platelet, change in mean from baseline to Day 7 ([1]; 40 μg s.c. daily for 7 days): 28.50 x e^9/L; Relative Neutrophil Count, change in mean from baseline to Day 7 ([1]; 40 μg s.c. daily for 7 days): 12%; White Blood Cells, change in mean from baseline to Day 7 ([1]; 40 μg s.c. daily for 7 days): 3.23 x e^9/L; Increase in the number of white blood cells at Day 7 from baseline relative to that in subjects treated with placebo ([1]; 60 μg s.c. daily for 7 days): about 8 times; Neutrophil, change in mean from baseline to Day 7 ([1]; 60 μg s.c. daily for 7 days): 4.53 x e^9/L; Platelet, change in mean from baseline to Day 7 ([1]; 60 μg s.c. daily for 7 days): 47.83 x e^9/L; Relative Neutrophil Count, change in mean from baseline to Day 7 ([1]; 60 μg s.c. daily for 7 days): 16%; White Blood Cells, change in mean from baseline to Day 7 ([1]; 60 μg s.c. daily for 7 days): 4.65 x e^9/L; Neutrophil, change in mean from baseline to Day 7 ([1]; 80 μg s.c. daily for 7 days): 4.40 x e^9/L; Platelet, change in mean from baseline to Day 7 ([1]; 80 μg s.c. daily for 7 days): 39.50 x e^9/L; Relative Neutrophil Count, change in mean from baseline to Day 7 ([1]; 80 μg s.c. daily for 7 days): 17%; White Blood Cells, change in mean from baseline to Day 7 ([1]; 80 μg s.c. daily for 7 days): 4.40 x e^9/L; increase in population of neutrophils at Day 7 relative to that for subjects treated with placebo ([1]; Day 7, s.c. daily for 7 days): about 50 fold; platelet count ([1]; dosage level of 60 μg and 80 μg, s.c. daily for 7 days): Significant increase; effect on white blood cell population, especially neutrophil population ([1]; s.c. daily for 7 days): significant stimulating effect; effect on white blood cell population, especially neutrophil population ([1]; s.c. daily for 7 days, listed as cyclic peptide of SEQ ID NO: 4): significant increase; increase in lymphocyte population ([2]; Day 14, vs control group): ~20%; increase in neutrophil population compared to mice in the control group [2]: ~75%; increase in the white blood cell population compared to mice in the control group [2]: ~26%; Lymphocytes [2]: 3.7 ± 1.92 1000/cmm; Neutrophils [2]: 0.7 ± 0.35 1000/cmm; White Blood Cells [2]: 4.8 ± 2.13 1000/cmm

Question: For “EPO: erythropoietin, an erythropoiesis regulator”, which Lymphocytes [2] is on record?
Answer: 3.5 ± 1.12 1000/cmm

Question: What about the Neutrophils [2] of the same molecule?
Answer: 0.5 ± 0.49 1000/cmm

Question: And the “White Blood Cells” value [2]?
Answer: 4.3 ± 1.56 1000/cmm

B1: G-CSF: granulocyte colony-stimulating factor, a hematopoietic growth factor (protein, UniProt P09919 31-207, looked up)
Granulocyte …: TPLGPASSLPQSFLLKCLEQVRKIQGDGAALQEKLVSECATYKLCHPEELVLLGHSLGIPWAPLSSCPSQALQLAGCLSQLHSGLFLYQGLLQALEGISPELGPTLDTLQLDVADFATTIWQQMEELGMAPALQPTQGAMPAFASAFQRRAGGVLVASHLQSFLEVSYRVLRHLAQP
Question: With B1 as the molecule, how does the “increase in neutrophil population compared to mice in the control group” value [2] read?
Answer: ~175%

Question: And the “increase in the white blood cell population compared to mice in the control group” value [2]?
Answer: ~20%

Question: And the Lymphocytes [2]?
Answer: 3.0 ± 1.30 1000/cmm

Question: What about the Neutrophils [2] of the same molecule?
Answer: 1.1 ± 0.25 1000/cmm

Question: And the “White Blood Cells” value [2]?
Answer: 4.5 ± 1.36 1000/cmm
